This note sets out measurements from patent US7932283B2, “Fungicide N-cyclopropyl-sulfonylamide derivatives” (Bayer Cropscience AG, priority 2006, dated 2011).

The nature of one series: logP by HPLC on reversed-phase column (C 18), EEC Directive 79/B31 Annex V.A8, methods A and B. Format: physicochemical. Particulars: reversed-phase HPLC column (C 18), LogP method A: HPLC reversed-phase C 18, 43° C., 0.1% aqueous phosphoric acid / acetonitrile, linear gradient 10% to 90% acetonitrile. On the procedure: Calibration was carried out using unbranched alkan-2-ones (having 3 to 16 carbon atoms) with known logP values (determination of the logP values by the retention times using linear interpolation between two successive alkanones).
A word on the chromatographic logP: it is a lipophilicity value derived from retention on a column. High values mean higher lipophilicity, low ones lower lipophilicity. In turn, `CCc1onc(C(C)C)c1C(=O)N(C1CC1)S(=O)(=O)c1ccc(O)cc1O` [Compound 596] had a chromatographic logP of 4.41. `CCc1onc(C(C)C)c1C(=O)N(C1CC1)S(=O)(=O)c1ccc(C(C)(C)C)cc1` [Compound 597]: the chromatographic logP was 4.98. `Cn1nc(C(=O)N(C2CC2)S(=O)(=O)c2ccccc2O)n(C)c1=O` [Compound 608] came in with a chromatographic logP of 1.97.

Take `COCCn1c(C)c(C(=O)N(C2CC2)S(=O)(=O)c2cccc(O)c2)sc1=O` [Compound 609]: the chromatographic logP turned out to be 2.01. With `COCCn1c(C)c(C(=O)N(C2CC2)S(=O)(=O)c2ccc(C(F)(F)F)cc2)sc1=O` [Compound 610], the chromatographic logP amounted to 2.01. Regarding `Cc1c(C(=O)N(C2CC2)S(=O)(=O)c2cccc(Cl)c2)sc(=O)n1C` [Compound 611], the chromatographic logP turned out to be 1.01. The same measure, in the same setting: the figure for `Cc1c(C(=O)N(C2CC2)S(=O)(=O)c2ccc(C(F)(F)F)cc2)sc(=O)n1C` [Compound 612] is 2.01.

`Cc1c(C(=O)N(C2CC2)S(=O)(=O)c2cccc(O)c2)sc(=O)n1Cc1ccccc1` [Compound 613]: the chromatographic logP came out at 2.01.

On to `Cc1c(C(=O)N(C2CC2)S(=O)(=O)c2ccc(C(F)(F)F)cc2)sc(=O)n1Cc1ccccc1` [Compound 614], for which the chromatographic logP was determined as 4.08.

As for `CCc1c(C(=O)N(C2CC2)S(=O)(=O)c2cccc(O)c2)sc(=O)n1C1CC1` [Compound 615], the chromatographic logP was determined as 2.01. Still for that read-out and setting: the figure for `CCc1c(C(=O)N(C2CC2)S(=O)(=O)c2ccc(C(F)(F)F)cc2)sc(=O)n1C1CC1` [Compound 616] is 2.01; for `CC(C)c1c(C(=O)N(C2CC2)S(=O)(=O)c2cccc(O)c2)sc(=O)n1C1CC1` [Compound 617] it is 2.01; for `CC(C)c1c(C(=O)N(C2CC2)S(=O)(=O)c2ccc(C(F)(F)F)cc2)sc(=O)n1C1CC1` [Compound 618] it is 4.03. The same measure, in the same setting: the result for `COCCn1c(C)c(C(=O)N(C2CC2)S(=O)(=O)c2ccc(O)c(C(F)(F)F)c2)sc1=O` [Compound 619] reads 2.01. In turn, `COCCn1c(C)c(C(=O)N(C2CC2)S(=O)(=O)c2ccc(O)cc2O)sc1=O` [Compound 620] returned a chromatographic logP of 2.01. Compound `COCCn1c(C)c(C(=O)N(C2CC2)S(=O)(=O)c2ccc(C(C)(C)C)cc2)sc1=O` [Compound 621] showed a chromatographic logP of 2.01.

`Cc1c(C(=O)N(C2CC2)S(=O)(=O)c2ccc(O)c(C(F)(F)F)c2)sc(=O)n1C` [Compound 622] showed a chromatographic logP of 2.01.

`Cc1c(C(=O)N(C2CC2)S(=O)(=O)c2ccc(O)c(O)c2)sc(=O)n1C` [Compound 623] returned a chromatographic logP of 2.01. For the compound `Cc1c(C(=O)N(C2CC2)S(=O)(=O)c2ccc(C(C)(C)C)cc2)sc(=O)n1C` [Compound 624], the chromatographic logP turned out to be 2.01.

For the compound `Cc1c(C(=O)N(C2CC2)S(=O)(=O)c2ccc(O)c(C(F)(F)F)c2)sc(=O)n1Cc1ccccc1` [Compound 625], the chromatographic logP came to 3.01. In turn, `Cc1c(C(=O)N(C2CC2)S(=O)(=O)c2ccc(O)c(O)c2)sc(=O)n1Cc1ccccc1` [Compound 626] displayed a chromatographic logP of 3.01. As for `Cc1c(C(=O)N(C2CC2)S(=O)(=O)c2ccc(O)cc2O)sc(=O)n1Cc1ccccc1` [Compound 627], the chromatographic logP turned out to be 4.03.

As to `Cc1c(C(=O)N(C2CC2)S(=O)(=O)c2ccc(C(C)(C)C)cc2)sc(=O)n1Cc1ccccc1` [Compound 628], the chromatographic logP turned out to be 3.01. Regarding `CCc1c(C(=O)N(C2CC2)S(=O)(=O)c2ccc(Cl)c(C(F)(F)F)c2)sc(=O)n1C1CC1` [Compound 629], the chromatographic logP worked out at 3.01. `CCc1c(C(=O)N(C2CC2)S(=O)(=O)c2ccc(O)c(O)c2)sc(=O)n1C1CC1` [Compound 630]: the chromatographic logP was 4.08. `CCc1c(C(=O)N(C2CC2)S(=O)(=O)c2ccc(O)cc2O)sc(=O)n1C1CC1` [Compound 631]: the chromatographic logP turned out to be 2.01. In turn, `CCc1c(C(=O)N(C2CC2)S(=O)(=O)c2ccc(C(C)(C)C)cc2)sc(=O)n1C1CC1` [Compound 632] yielded a chromatographic logP of 3.01. Compound `CC(C)c1c(C(=O)N(C2CC2)S(=O)(=O)c2ccc(O)c(C(F)(F)F)c2)sc(=O)n1C1CC1` [Compound 633] registered a chromatographic logP of 3.01.

`CC(C)c1c(C(=O)N(C2CC2)S(=O)(=O)c2ccc(O)c(O)c2)sc(=O)n1C1CC1` [Compound 634] registered a chromatographic logP of 3.01. Compound `CC(C)c1c(C(=O)N(C2CC2)S(=O)(=O)c2ccc(O)cc2O)sc(=O)n1C1CC1` [Compound 635] gave a chromatographic logP of 2.01. Compound `CC(C)c1c(C(=O)N(C2CC2)S(=O)(=O)c2ccc(C(C)(C)C)cc2)sc(=O)n1C1CC1` [Compound 636] had a chromatographic logP of 3.01. Consider `O=C(c1cccnc1)N(C1CC1)S(=O)(=O)c1ccc(C(F)(F)F)cc1` [Compound 637], for which the chromatographic logP came to 2.74. On to `O=C(c1cccnc1)N(C1CC1)S(=O)(=O)c1ccc(O)c(C(F)(F)F)c1` [Compound 638], for which the chromatographic logP is 3.1. Compound `O=C(c1cccnc1)N(C1CC1)S(=O)(=O)c1ccc(O)c(O)c1` [Compound 639] gave a chromatographic logP of 2.91.

`O=C(c1cccnc1)N(C1CC1)S(=O)(=O)c1cccc(O)c1` [Compound 642] showed a chromatographic logP of 2.3.

Turning to `O=C(c1cccnc1Cl)N(C1CC1)S(=O)(=O)c1cccc(O)c1` [Compound 643], the chromatographic logP turned out to be 2.91. Same read-out and setting: the figure for `O=C(c1cccnc1Cl)N(C1CC1)S(=O)(=O)c1ccccc1O` [Compound 644] is 2.58; for `Cc1cc(C)c(C(=O)N(C2CC2)S(=O)(=O)c2cccc(O)c2O)c(O)n1` [Compound 650] it is 3.57. In turn, `Cc1cc(C)c(C(=O)N(C2CC2)S(=O)(=O)c2ccc(O)c(O)c2O)c(Cl)n1` [Compound 651] came in with a chromatographic logP of 4.16. The compound `O=C(C1=C(C(F)(F)F)OCCS1)N(C1CC1)S(=O)(=O)c1ccccc1O` [Compound 653] registered a chromatographic logP of 3.2. On the same count and under the same terms, the figure for `Cc1cc(C(=O)N(C2CC2)S(=O)(=O)c2ccccc2O)nc(Cl)n1` [Compound 654] is 2.93.

Still in this series, the particulars now being: reversed-phase HPLC column (C 18), LogP method B: HPLC reversed-phase C 18, 40° C., 0.1% aqueous formic acid / acetonitrile, linear gradient 10% to 90% acetonitrile.
On to `Cc1nocc1C(=O)N(C1CC1)S(=O)(=O)c1cccc(O)c1O` [Compound 599], for which the chromatographic logP came out at 3. As for `Cc1nocc1C(=O)N(C1CC1)S(=O)(=O)c1ccc(O)c(O)c1O` [Compound 600], the chromatographic logP came out at 3.6. Take `Cc1nocc1C(=O)N(C1CC1)S(=O)(=O)c1ccc(Oc2ccccc2)cc1` [Compound 601]: the chromatographic logP was 3.7. Same read-out and setting: the result for `Cc1nocc1C(=O)N(C1CC1)S(=O)(=O)c1ccc(Oc2ccc(Br)cc2)cc1` [Compound 602] reads 4.2; that for `Cc1oncc1C(=O)N(C1CC1)S(=O)(=O)c1cccc(O)c1O` [Compound 603], 2.2; that for `Cc1oncc1C(=O)N(C1CC1)S(=O)(=O)c1ccc(O)c(O)c1O` [Compound 604], 2.6. As to `Cc1oncc1C(=O)N(C1CC1)S(=O)(=O)c1ccc(Oc2ccc(Br)cc2)cc1` [Compound 605], the chromatographic logP was determined as 3.4. The compound `Cc1oncc1C(=O)N(C1CC1)S(=O)(=O)c1ccc(Oc2ccccc2)cc1` [Compound 606] returned a chromatographic logP of 3.7. `O=C(c1cccnc1O)N(C1CC1)S(=O)(=O)c1cccc(O)c1O` [Compound 645] yielded a chromatographic logP of 3.2.

In turn, `O=C(c1cccnc1O)N(C1CC1)S(=O)(=O)c1ccc(Oc2ccccc2)cc1` [Compound 646] had a chromatographic logP of 3.7. `O=C(c1cccnc1O)N(C1CC1)S(=O)(=O)c1ccc(O)c(O)c1O` [Compound 647] had a chromatographic logP of 3.7. The compound `O=C(c1cccnc1O)N(C1CC1)S(=O)(=O)c1ccc(Oc2ccc(Br)cc2)cc1` [Compound 648] returned a chromatographic logP of 4.3. Compound `O=C(c1cccnc1F)N(C1CC1)S(=O)(=O)c1cccc(O)c1O` [Compound 649] returned a chromatographic logP of 2.4. The compound `Cc1cnn(C)c1C(=O)N(C1CC1)S(=O)(=O)c1cccc(O)c1O` [Compound 658] gave a chromatographic logP of 3.1.

As for `Cc1cnn(C)c1C(=O)N(C1CC1)S(=O)(=O)c1ccc(O)c(O)c1O` [Compound 659], the chromatographic logP is 3.6. The compound `Cc1cnn(C)c1C(=O)N(C1CC1)S(=O)(=O)c1ccc(Oc2ccccc2)cc1` [Compound 660] gave a chromatographic logP of 3.6. On the same count and under the same terms, the figure for `Cc1cnn(C)c1C(=O)N(C1CC1)S(=O)(=O)c1ccc(Oc2ccc(Br)cc2)cc1` [Compound 661] is 4.2; for `Cn1ncc(I)c1C(=O)N(C1CC1)S(=O)(=O)c1cccc(O)c1O` [Compound 662] it is 2.8.

As to `Cn1ncc(I)c1C(=O)N(C1CC1)S(=O)(=O)c1ccc(O)c(O)c1O` [Compound 663], the chromatographic logP is 3.4.

Staying with this series, now noted: reversed-phase HPLC column (C 18), Method A: 43° C., 0.1% aqueous phosphoric acid, acetonitrile.
As for `Cc1nn(C)c(F)c1C(=O)N(C1(c2ccc(O)cc2)CC1)S(=O)(=O)c1cccc(O)c1O` [Compound 669], the chromatographic logP came to 4.44. Take `Cc1nn(C)c(F)c1C(=O)N(C1CC1c1ccccc1)S(=O)(=O)c1ccccc1O` (stereo not shown) [Compound 676]: the chromatographic logP was found to be 3.27.

The series is the same for the next values; noted with them: reversed-phase HPLC column (C 18), Method B: 40° C., 0.1% aqueous formic acid and acetonitrile.
Consider `COC(=O)C1(N(C(=O)c2c(C(F)(F)F)nn(C)c2F)S(=O)(=O)c2ccc(O)c(O)c2O)CC1` [Compound 667], for which the chromatographic logP is 4.04. For the compound `Cc1nn(C)c(F)c1C(=O)N(C1(c2ccccc2)CC1)S(=O)(=O)c1cccc(O)c1O` [Compound 670], the chromatographic logP was 4.1.
